Experimental data from patent publication US4044051A, “9[2-(1-Al koxy-ethyl)-5,5-dimethyl-cyclopent-1-en-1-yl]-3,7-dimethyl-nona-2,4,6,8-t etraen acid compounds” (Hoffmann-La Roche Inc., priority 1971, dated 1977).

Assays:
[1] = acute toxicity (delayed toxicity in mice after 20 days), i.p. in rape oil; type: in vivo; conditions: mouse, ip
Source text: (§1) The toxicity of the polyene compound of formula I is slight.

mice = test: as above; type: in vivo
Source text: as §1

SMILES: COC(C)C1=C(C=CC(C)=CC=CC(C)=CC(=O)O)C(C)(C)CC1 (centres unmarked) [9-[2-(1-methoxyethyl)-5,5-dimethyl-cyclopent-1-en-1-y1]-3,7-dimethyl-nona-2,4,6,8-tetraen-1-acid]
- LD50 at 24 h ([1]; after 1 day): > 4000 mg/kg
- LD50 at 240 h ([1]; after 10 days): 350 mg/kg
- LD10 (mice; after 1 day): > 4000 mg/kg
- LD90 (mice; after 1 day): > 4000 mg/kg
- LD10 (mice; after 10 days): 290 mg/kg
- LD90 (mice; after 10 days): 430 mg/kg
- LD10 (mice; after 20 days): 290 mg/kg
- LD90 (mice; after 20 days): 430 mg/kg
